# The source made the active and inactive calls. The rule behind the calls is not given here.
# What was measured:
# Rattus norvegicus = species on record: Rattus norvegicus; assay: Inhibition of rat liver mitochondrial ATPase assessed as specific activity at 0.42 mM relative to control; parameters: scale not given: the % may be the effect or the level left
# Bos taurus [1] = species on record: Bos taurus; assay: Inhibition of beef heart mitochondrial NADH oxidase assessed as specific activity at 0.35 mM preincubated for 15 mins relative to control; parameters: scale not given: the % may be the effect or the level left
# Bos taurus [2] = species on record: Bos taurus; assay: Inhibition of beef heart mitochondrial succinoxidase assessed as specific activity at 0.35 mM preincubated for 15 mins relative to control; parameters: scale not given: the % may be the effect or the level left
# [3] = Inhibition of beef heart mitochondrial NADH oxidase assessed per mg of protein; parameters: species or system Bos taurus; conditions: read-out: I50
# [4] = Inhibition of rat liver mitochondrial ATPase assessed per mg of protein; conditions: read-out: I50
# [5] = Inhibition of beef heart mitochondrial succinoxidase assessed per mg of protein; parameters: species or system Bos taurus; conditions: read-out: I50
# Bos taurus [6] = species on record: Bos taurus; assay: Inhibition of beef heart mitochondrial NADH oxidase assessed as complete enzyme inhibition at 100 nmol/mg
SMILES,Activity (Rattus norvegicus) [%],Activity (Bos taurus [1]) [%],Activity (Bos taurus [2]) [%],IC50 [3] [nmol/mg],IC50 [4] [nmol/mg],IC50 [5] [nmol/mg],Activity (Bos taurus [6])
COc1ccc(-c2cc(=O)c3c(O)cc(O)cc3o2)cc1,98.7,88.6,99.3,–,–,–,–
COc1ccc(-c2oc3cc(O)cc(O)c3c(=O)c2O)cc1,96.1,70.6,98.7,–,–,–,–
COc1ccccc1-c1cc(=O)c2c(OC)cccc2o1,77.3,86.9,80.8,–,–,–,–
O=c1c(O)c(-c2ccc(O)cc2)oc2cc(O)cc(O)c12,94.2,59.3,84.4,–,–,–,–
O=c1cc(-c2ccccc2)oc2cccc(O)c12 [5-HYDROXYFLAVONE],98.9,14.6,95.7,425,–,–,–
O=c1cc(-c2ccccc2)oc2cc(O)ccc12 [7-HYDROXYFLAVONE],95.1,54.2,91.3,1400,–,–,–
O=C1c2c(O)cc(O)cc2O[C@H](c2ccc(O)c(O)c2)[C@H]1O [(+)-TAXIFOLIN],–,–,–,1040,–,–,–
O=c1cc(-c2ccc(O)cc2)oc2cc(O)cc(O)c12 [APIGENIN],84.6,12.9,93.8,920,–,–,–
O=c1cc(-c2ccccc2)oc2cc(O)cc(O)c12 [CHRYSIN],77.7,11.2,75.8,250,–,–,–
O=c1c(O)c(-c2ccc(O)c(O)c2)oc2cc(O)ccc12 [FISETIN],17.2,8.3,9.6,15,480,45,Active
O=C1CC(c2ccccc2)Oc2ccccc21 (centres undefined) [FLAVANONE],73.4,6.5,84.8,310,–,–,–
O=c1cc(-c2ccccc2)oc2ccccc12 [FLAVONE],67.4,14.5,82,240,–,–,–
O=C1c2ccc(O)cc2O[C@H](c2ccc(O)c(O)c2)[C@H]1O [FUSTIN],–,–,–,671,–,–,–
O=c1c(O)c(-c2ccccc2)oc2cc(O)cc(O)c12 [GALANGIN],99.9,48.6,92.4,1670,–,–,–
O=c1c(-c2ccc(O)cc2)coc2cc(O)cc(O)c12 [GENISTEIN],69.2,6.6,98.3,365,–,–,–
O=c1c(O)c(-c2ccc(O)cc2O)oc2cc(O)cc(O)c12 [MORIN],13.3,18,31.5,430,120,730,–
O=c1c(O)c(-c2cc(O)c(O)c(O)c2)oc2cc(O)cc(O)c12 [MYRICETIN],8.4,12,14.7,35,370,45,–
O=C1C[C@@H](c2ccc(O)cc2)Oc2cc(O)cc(O)c21 [NARINGENIN],43.6,83.9,84.8,–,1800,–,–
O=c1c(O)c(-c2ccc(O)c(O)c2)oc2cc(O)cc(O)c12 [QUERCETIN],7.1,6.4,21.8,145,205,715,–
C[C@@H]1O[C@@H](OC[C@H]2O[C@@H](Oc3c(-c4ccc(O)c(O)c4)oc4cc(O)cc(O)c4c3=O)[C@H](O)[C@@H](O)[C@@H]2O)[C@H](O)[C@H](O)[C@H]1O [RUTIN],66.5,49.1,66.7,1890,–,–,–

# Reference: ChEMBL document CHEMBL1150720, “Inhibition of mitochondrial NADH oxidase, succinoxidase, and ATPase by naturally occurring flavonoids” (J Nat Prod, 1987)
